Experiment [1] concerns the target T1, estrogen receptor from the rat uterus (Rattus norvegicus, UniProt P06211).
T1 construct: The preparation of rat uterus cytosol as well as the receptor test with the estrogen-receptor-containing cytosol; from tissue; host or cells: rat uterus cytosol
T1 sequence (P06211 1-600): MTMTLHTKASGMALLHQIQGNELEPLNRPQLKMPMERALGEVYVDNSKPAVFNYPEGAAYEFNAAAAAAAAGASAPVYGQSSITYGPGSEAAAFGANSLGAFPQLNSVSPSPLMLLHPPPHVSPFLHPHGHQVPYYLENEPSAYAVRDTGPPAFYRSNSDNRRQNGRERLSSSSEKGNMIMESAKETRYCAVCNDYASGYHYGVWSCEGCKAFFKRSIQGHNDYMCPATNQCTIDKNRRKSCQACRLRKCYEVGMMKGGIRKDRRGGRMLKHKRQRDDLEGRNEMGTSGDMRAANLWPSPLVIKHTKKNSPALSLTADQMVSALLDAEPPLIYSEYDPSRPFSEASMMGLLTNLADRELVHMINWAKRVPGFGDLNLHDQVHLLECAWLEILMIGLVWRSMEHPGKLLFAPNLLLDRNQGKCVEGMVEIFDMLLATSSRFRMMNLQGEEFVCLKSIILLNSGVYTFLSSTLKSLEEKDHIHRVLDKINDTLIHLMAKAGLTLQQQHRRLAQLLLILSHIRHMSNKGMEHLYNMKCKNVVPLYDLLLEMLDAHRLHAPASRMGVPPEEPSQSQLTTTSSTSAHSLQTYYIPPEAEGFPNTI
Briefly: Estrogen receptor binding, rat uterus cytosol, competition with 3H-estradiol.

The test system of experiment [2] is estrogen receptor from the rat uterus. Described as above.
Experiment [3] has as its system hER β. Briefly: Relative binding affinity to hER β (cited from Kuiper et al.). Further details: species or system human. As to conditions: Table 2; quotient of the cited RBA values. From the text: In this case, it is assumed that ERβ predominates in the rat prostate over ERα, and ERα predominates in the rat uterus over ERβ.
Experiment [4] concerns estrogen receptor from the rat prostate. Briefly: Estrogen receptor binding, rat prostate cytosol, competition with 3H-estradiol. To be noted: for Rat Prostate ER (RBA): Table 1, 3H-estradiol as ligand.
Experiment [5] deals with hER β. As to conditions: Table 2; cited from Kuiper et al. (1996), Endocrinology 138: 863-870; cited from earlier work.
Experiment [6] deals with MCF-7 breast cancer cells. Briefly: Cell proliferation assay, estradiol-stimulated MCF-7, crystal violet. Format: cell-based. As to conditions: Homo sapiens, MCF7, 168 h; concentration 10^-5 M; 7 days; FIG. 1.
[7] abbreviates: relative binding affinity, estradiol = 100.

Like-named read-outs stand apart in the source and are kept apart here.

For `C[C@]12CC[C@H](O)CC1=CCC1C2CC[C@@]2(C)C1CC[C@@H]2O` (stereo partly shown) [5-Andros-ten-diol], the “Rat uterus ER(RBA)” value in experiment [1] is reported as 0.1. Further, the Uterus-ER/Prostata-ER in experiment [2] (Table 2, ratio of rat ER RBA values as headed) was determined as 50. In experiment [3], this molecule yielded an ERβ/ERα of 3. In experiment [4], the “Rat prost. ER(RBA)” value worked out at 5. The “hER β RBA” value in experiment [5] is given as 17.
What is called inhibition is the percentage by which the read-out fell short of the control. Read a high inhibition as a strong effect. With `CCCCCC[C@H]1C[C@@]2(C)C(C[C@H]3OC(=O)C[C@]32O)C2CCc3cc(O)ccc3C21` (stereo partly drawn) [Compound 1, 3,17β-Dihydroxy-11β-hexyl-19-nor-17α-pregna-1,3,5(10)-triene-21,16α-lactone], the inhibition at 10 µM in experiment [6] was determined as 100%. For the same molecule, in experiment [1] (Table 1, relative binding affinity, estradiol = 100, 3H-estradiol as ligand), the “Rat uterus ER(RBA)” value is listed as 26.2. In experiment [2] (Table 1, ratio of RBA rat uterus ER to rat prostate ER), the Uterus-ER/Prostate-ER is 22. In addition, the “Binding affinity, rat uterus ER compared with rat prostate ER (in words)” value in experiment [2] (see Table 1) is on record as “higher binding affinity to the estrogen receptor from the rat uterus than to the estrogen receptor from the rat prostate”. The “Rat Prostate ER (RBA)” value in experiment [4] (setting [7]) amounted to 1.2.
For `C[C@]12CCC3c4ccc(O)cc4CCC3C1CC[C@@H]2O` (stereo partly shown) [Estradiol], the “Rat Prostate ER (RBA)” value in experiment [4] (setting [7]) is reported as 100. Also, in experiment [4] (Table 2, relative binding affinity, estradiol = 100), the “Rat prost. ER(RBA)” value was 100.
For `C[C@]12CC[C@@H]3c4ccc(O)cc4CC[C@H]3[C@@H]1C[C@@H](O)[C@@H]2O` [Estriol], the “hER β RBA” value in experiment [5] is listed as 21.

Values taken from patent US7119082B2, “11β-long-chain-substituted 19-nor-17α-pregna-1,3,5(10)-trien-17β-ols with a 21,16α-lactone ring” (priority 2002, dated 2006).
